In patent US20160263072A1, “MONOACYLGLYCEROLS AND FAT-SOLUBLE NUTRIENTS FOR USE IN THE TREATMENT OF MALABSORPTION HAVING A NON-MECHANICAL BASIS” (NESTEC S.A., priority 2013, published 2016):

Experiments:
[1] = Lipid maldigestion or malabsorption rat model (XENICAL-induced): EPA level in red blood cell and tissue lipids; format: in vivo; conditions: rats
Experimental: The concept was tested in a lipid maldigestion or malabsorption rat model. The maldigestion or malabsorption condition was obtained using XENICAL® (ORLISTAT), a pancreatic and gastric lipases inhibitor (tetrahydrolipstatin; see FIG. 7). Rats were fed during 21 days with long-chain polyunsaturated fatty acid (LC-PUFA) supplements containing mainly eicosapentaenoic (EPA) acid. Fish oil was used as a source of triacylglycerols, and different EPA glycerides were evaluated. XENICAL® (ORLISTAT) was given at a level sufficient to decrease lipid absorption by 40%. A group receiving fish oil without XENICAL® (ORLISTAT) was used as a positive control. At different time intervals (D3, D7, […]), the fatty acid profiles of red blood cell and plasma lipids were determined. At the end of the experiment, the fatty acid profiles of different tissues were determined. The main objective was to follow the level of EPA in red blood cell and plasma lipids. The main comparison evaluated was the difference in EPA level between the group receiving EPA-containing sn-1(3) MAG in combination with XENICAL® (ORLISTAT) and the positive control group (fish oil+XENICAL® (ORLISTAT)).

[2] = Clinical study: delivery of EPA by sn-1(3) MAG vs fish oil (TAG) under XENICAL (ORLISTAT)-induced lipid maldigestion; format: in vivo, humans
Experimental: This clinical study compared the efficacy of sn-1(3) MAG and fish oil (TAG) in delivering EPA in humans under lipid maldigestion conditions induced by XENICAL® (ORLISTAT). The comparison was tested in volunteers having a BMI of 37-40 kg/m^2 and treated with ORLISTAT® to induce lipid maldigestion or not treated with XENICAL® (ORLISTAT). The primary objective was to assess accretion of EPA in erythrocytes over 21 days when consumed as fish oil (TAG) or sn-1(3) MAG. The secondary objectives were to assess accretion of EPA in plasma over 21 days and also to assess the pharmacokinetics of EPA after an acute dose either in the form of sn-1(3) MAG or TAG (AUC in chylomicrons over 10 hours postprandial).

Structure (SMILES) | EPA incorporation in red blood cells ([1]; day 7, fish oil + XENICAL vs fish oil without XENICAL) | chronic effect: accretion of EPA in erythrocytes after 21 days ([2]; humans, with XENICAL, vs fish oil and XENICAL, p=0.0001) | chronic effect: accretion of EPA in plasma after 21 days ([2]; humans, with XENICAL, vs fish oil and XENICAL, p=0.0003) | carrier for EPA compared with fish oil (TAG) ([2]; obese subjects treated with XENICAL) | incorporation of LC-PUFAs in tissue ([1]; conditions of lipid maldigestion or malabsorption)
CCCCCCCCCCC[C@@H](C[C@@H]1OC(=O)[C@H]1CCCCCC)OC(=O)[C@H](CC(C)C)NC=O [XENICAL® (ORLISTAT), tetrahydrolipstatin, reference compound] | decreases EPA incorporation in red blood cells | – | – | – | –
CC/C=C\C/C=C\C/C=C\C/C=C\C/C=C\CCCC(=O)OC[C@@H](O)CO [sn-1(3) MAG, 1,3 MAG-EPA] | – | statistically significant | statistically significant | better carrier for EPA than fish oil | improved
